experiment: gradient 5% acetonitrile 3 min, to 50% in 2 min, to 85% in 15 min, held 3 min, 100 µL/min; conditions: column: Zorbax Extend-C18 2.1 x 50 mm; eluents: water / acetonitrile, 0.1% formic acid
Method in brief: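 The mobile phases were water and acetonitrile, each with 0.1% formic acid, pumped at 100 μL/min through a Zorbax Extend-C18 column (2.1 × 50 mm, 1.8 μm). Pure standards were injected as mixtures of ~100 molecules and detected by a quadrupole time-of-flight mass spectrometer in positive and negative ionization mode. Retention time came from computationally picked adduct peaks, each inspected by hand.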

Row | SMILES | RP-LC retention time [s]
1 | CC(C)CC(=O)N1C[C@H](c2nc(-c3cccnc3)no2)[C@@H](C)C1 | 751
2 | CC1=C(c2ccc(F)cc2)S(=O)(=O)N=C1N1CCCN(C(=O)c2cccc(C)c2)CC1 | 859
3 | COc1ccc(Cl)cc1NC(=O)CSc1nccc(N2CCN(c3cc(C)ccc3C)CC2)n1 | 1160
4 | CC(C)Cn1c(=O)c(C(=O)NC2CCCC2)nc2cccnc21 | 936
5 | O=C(Nc1nc(-c2ccncc2)cs1)C1CCCCC1 | 588
6 | O=C(Nc1cc(-c2cccnc2)no1)c1ccc2c(c1)OCO2 | 710
7 | COc1cccc(NC(=O)NCCCN2CCN(c3ccccc3)CC2)c1OC | 582
8 | Cc1ccc(C2Cn3nnc(C(=O)N4CCN(C(=O)c5ccco5)CC4)c3CO2)cc1 (centres undefined) | 844
9 | COc1ccc(N2C(=O)C3N=NN(c4cccc(OC)c4)C3C2=O)cc1 (centres undefined) | 905
10 | COc1ccc(C2=NC3(CCN(C(C)C)CC3)NC(c3cccc(OC)c3O)C2)cc1OC (centres undefined) | 575
11 | CCCN1C(=O)CCc2cc(NS(=O)(=O)c3ccc(CC(C)C)cc3)ccc21 | 1030
12 | COc1ccc(CCNC(=O)c2ccc(-n3nc(C)cc3C)nc2)cc1OC | 758
13 | CCc1nc2cc(N3CCC(C(=O)N4CCC5(CC4)OCCO5)CC3)cnc2nc1CC | 723
14 | O=C(NCCC1=CCCCC1)C1CCCCN1S(=O)(=O)c1ccc(Cl)cc1 (centres undefined) | 1200
15 | COc1cc2c(cc1OC)C1C(C(=O)Nc3ccc4c(c3)OCO4)c3ccccc3C(=O)N1CC2 (centres undefined) | 779
16 | CC(C)n1c(-c2cccc(C(=O)NCc3ccncc3)c2)nc2cccnc21 | 599
17 | COc1ccccc1NC(=O)Cc1csc2nc(-c3ccccc3)cn12 | 786
18 | CCc1ccc(-c2cc3c(=O)n(CC(=O)NCC4CCCN4CC)nc(C)n3n2)cc1 (centres undefined) | 713
19 | Cn1nccc1-c1cccc(-c2noc(-c3ccccc3Cl)n2)c1 | 1170
20 | CCCN1C(=O)COc2cc(-c3noc(C(=O)NCC4CCCN4CC)n3)ccc21 (centres undefined) | 645
21 | CCN1CCN(c2c(S(=O)(=O)c3ccc(Cl)cc3)cnc3cc4c(cc23)OCCO4)CC1 | 660
22 | NC(=O)C1CCN(C(=O)Cc2cc(-c3ccc(F)cc3)on2)CC1 | 630
23 | Cc1nc2nc(-c3ccc(C(C)(C)C)cc3)nn2c(C)c1CC(=O)N1CCCC1 | 900

Row | SMILES | RP-LC retention time [s]
24 | COc1cc2c(cc1CNC(=O)Cn1cc(C(=O)C(C)C)c3ccccc31)OCCCO2 | 893
25 | CNC(=O)c1nsc(C(=O)OC)c1N | 677
26 | CNC(=O)N1CCCC(c2cccc(C(=O)NC(C)c3ccc(F)cc3)c2)C1 (centres undefined) | 792
27 | CS(=O)(=O)N(C1CCOCC1)C1CN(C(=O)c2n[nH]c3ccccc23)C1 | 663
28 | Cc1cc(C)n(Cc2nc(-c3ccc(NC(=O)c4ccc(C#N)cc4)cc3)oc2C)n1 | 870
29 | CN(C)CCNC(=O)CS(=O)Cc1cnn(-c2ccccc2)c1-n1cccc1 (centres undefined) | 603
30 | Cc1ccc2c(Nc3ccc4c(c3)OCCO4)c(C(=O)N3CCCC(C)C3)cnc2n1 (centres undefined) | 645
31 | CCOc1ccc(S(=O)(=O)N2CCC(c3noc(-c4ccc(C)cc4)n3)CC2)cc1 | 1240
32 | Cc1noc(-c2nc(Cc3cccc(F)c3)no2)n1 | 940
33 | COc1ccc(N2CCN(c3cc(SCC(=O)NCc4ccccc4)ncn3)CC2)cc1 | 823
34 | Cc1ccc(CNC(=O)CCCn2nc(-n3cccc3)c3c(C)cc(C)nc32)cc1 | 1050
35 | CCN1CCN(C(=O)C2CCc3sc(C(=O)N(CC)CC)cc3C2)CC1 (centres undefined) | 683
36 | COc1ccc(-c2noc(Cn3ccn(-c4cc(C)ccc4C)c(=O)c3=O)n2)cc1 | 920
37 | O=C(N[C@H]1C[C@@H]2C[C@H]1N(C(=O)Cc1c(F)cccc1Cl)C2)c1ccccc1 | 827
38 | COC(=O)c1cccc(NC(=O)C2CCN(c3c(C#N)cnc4ccccc34)CC2)c1 | 675
39 | Cn1c(CC2CCN(S(=O)(=O)Cc3cccc(Cl)c3)C2)nc2cccnc21 (centres undefined) | 656
40 | CC(C)(C)C(=O)N1CCC(C(=O)Nc2ccc(S(=O)(=O)N3CCCC3)cc2)CC1 | 792
41 | O=C(Cc1cccs1)N1CCN(C(=O)c2cc3cc(Br)ccc3[nH]2)CC1 | 866
42 | O=C(CN1CCC(c2nc(-c3cccs3)no2)CC1)N1CCN(c2ccccc2)CC1 | 702
43 | O=C(NCCc1ccccc1)C1c2ccccc2C(=O)N1Cc1ccc2c(c1)OCO2 (centres undefined) | 865
44 | O=C(Nc1ccccn1)C1CCCN(S(=O)(=O)c2cc(-c3noc(C4CCC4)n3)cs2)C1 (centres undefined) | 978
45 | CCc1cccc(NC(=O)C2CCN(S(=O)(=O)c3cn(C(C)C)cn3)CC2)c1 | 840
46 | CC(C)CCNC(=O)C1CC(=O)N(CCc2c[nH]c3ccc(Cl)cc23)C1 (centres undefined) | 809

Row | SMILES | RP-LC retention time [s]
47 | CCCn1cc(C(=O)NCc2ccc(N3CCOCC3)cc2)c2cccnc21 | 734
48 | CCN1C(=O)CCc2cc(NC(=O)COc3ccc(F)cc3)ccc21 | 801
49 | COc1ccc(N2CCN(C(=O)c3cc4c(s3)CN(C3CCCC3)C4)CC2)cc1 | 623
50 | CCOC(=O)N1CCC2(CC1)OC(=O)C(C)=C2C(=O)Nc1cccc(OC)c1 | 845
51 | CN1C(=O)c2cccn2CC1C(=O)NCc1cccs1 (centres undefined) | 654
52 | Cc1nnc(C2CC3(CCN(CCCO)CC3)CN2Cc2ccccc2)o1 (centres undefined) | 577
53 | O=C(NC1CCCCC1)C1CCN(C(=O)C2Sc3ccccc3NC2=O)CC1 (centres undefined) | 732
54 | O=C(Cn1ccc2ccccc21)N1CCN(c2ccc(C(F)(F)F)cn2)CC1 | 982
55 | Fc1ccccc1-c1noc(-c2ncn3c2COC(c2ccccc2Cl)C3)n1 (centres undefined) | 1080
56 | O=C(N[C@H](Cc1ccccc1)C(=O)NCc1cscn1)c1cccc(Cl)c1 | 806
57 | O=C(NCCc1noc(C2CC2)n1)C1CCC1 | 651
58 | CC(C)(C)c1ccc2c(c1)N(Cc1nc(-c3ccccc3Cl)no1)C(=O)CO2 | 1240
59 | Cc1ccc(Nc2cc(C)nc(N3CCN(C(=O)Nc4ccc(Cl)cc4)CC3)n2)cc1 | 908
60 | CC1CCN(c2cc(-n3cnc(C(=O)NCC4CCCO4)c3)ncn2)CC1 (centres undefined) | 819
61 | Cc1ccc(S(=O)(=O)c2cnc(N3CCN(c4ccccc4Cl)CC3)nc2N)cc1 | 1230
62 | O=C(c1ccnc(N2CCNC(c3ccccc3)C2)c1)N1CCCN(c2ncccn2)CC1 (centres undefined) | 596
63 | O=C1COc2ccc(S(=O)(=O)N3CCCC3C(=O)Nc3cccc(Cl)c3)cc2N1 (centres undefined) | 835
64 | COc1cc2[nH]c3c(SCC(=O)N4CCc5ccccc5C4)ncnc3c2cc1OC | 744
65 | C=CCNC(=O)c1sc(Nc2ccc(Cl)cn2)nc1C | 746
66 | CCn1c(C(=O)N2CCN(c3ccccn3)CC2)cc2sccc21 | 636
67 | CCCNC(=O)CCNc1c(-c2cccc(F)c2)nc2cnccn12 | 650
68 | Cc1cc(C(=O)N2CCCn3nc(-c4ccc(F)cc4)cc3C2)nn1C | 629
69 | N=C(CC(O)COc1ccccc1-c1ccccc1)N1CCCCC1 (centres undefined) | 793

Row | SMILES | RP-LC retention time [s]
70 | CN(C)c1cccc(C(=O)NCc2nn(C)c3ccccc23)c1 | 709
71 | CCn1nccc1C(=O)N1CCCC1c1ccc(C)cc1 (centres undefined) | 890
72 | O=C(Cn1nc2c(N3CCN(c4ccccc4)CC3)nccn2c1=O)Nc1cccc(Cl)c1 | 964
73 | Cn1cc(C2=CCN(S(=O)(=O)c3cccc(C#N)c3)CC2)c2cccnc21 | 904
74 | O=C(NCCc1ccc(N2CCCC2)cc1)C(=O)Nc1ccc(OC(F)(F)F)cc1 | 1090
75 | O=S(=O)(c1ccccc1)N1CCC(c2noc(C3CC3)n2)C1 (centres undefined) | 866
76 | CC1CCN(C(=O)c2cn(-c3cc(-c4nc(C(C)(C)C)no4)ccn3)cn2)CC1 | 1060
77 | CCc1nc2cc(-c3noc(Cc4ccccc4Cl)n3)ccc2o1 | 1170
78 | CCN1C(=O)c2cccc3c(NC(=O)Nc4cccc(Cl)c4)ccc1c23 | 889
79 | COC(=O)CNC(=O)c1cc2c(=O)n(CC(C)C)c3ccccc3n2n1 | 807
80 | O=C(Nc1ccc(Cl)cc1)C1(c2cccs2)CCOCC1 | 976
81 | CCc1ccc(CNC(=O)Cn2c(C)nc3onc(CC)c3c2=O)cc1 | 885
82 | CC1=NS(=O)(=O)N(C)C=C1C(=O)OCc1ccc(Cl)cc1 | 978
83 | CN(C)C(=O)c1cc(=O)[nH]c2ccc(F)cc12 | 577
84 | Cc1noc(-c2ccc(=O)n(Cc3cccc(C(F)(F)F)c3)c2)n1 | 806
85 | CCc1ccc2nc(NC3=NCN(Cc4cccnc4)CN3)nc(C)c2c1 | 608
86 | C[C@H]([C@H](C)N1CC(=O)NC(=O)C1)N1CC(=O)NC(=O)C1 | 610
87 | O=C(CN1C(=O)CCc2cc(Br)ccc21)NCCN1CCc2ccccc2C1 | 662
88 | CCOCCCNC(=O)C1CCCN(c2nnc(C)c3c(C)n(-c4ccc(OC)cc4)nc23)C1 (centres undefined) | 665
89 | Cc1ccc2c(c1)[C@H]1OCCC[C@H]1C(c1cccc(O)c1)N2 (some centres undefined) | 928

From the METLIN SMRT retention time set (Domingo-Almenara et al. 2019)
